Type in all cases: functional
One assay deals with Micrococcus luteus. The experiment in a line: Antimicrobial activity against Micrococcus luteus by Kirby-Bauer growth inhibition assay.
In another assay the test system is Candida albicans. The experiment in a line: Antimicrobial activity against Candida albicans by Kirby-Bauer growth inhibition assay.
Another assay has as its system Escherichia coli. The experiment in a line: Antimicrobial activity against Escherichia coli by Kirby-Bauer growth inhibition assay.

Where only a bound is given, the exact number is not on record here.

On to `CC1(C)C[C@H]2C=C3COC(O)[C@]34C[C@]4(C)[C@H]2C1` (stereo not given in full) [ISOVELLEROL], for which the results for the Activity in the assay on Micrococcus luteus, in the assay on Candida albicans and with Escherichia coli were 300 µg, 50 µg and >1000 µg, respectively.

`CC1(C)C[C@H]2C=C(C=O)[C@]3(C=O)C[C@]3(C)[C@H]2C1` [ISOVELLERAL]: the Activity with Micrococcus luteus is 2 µg; in the assay on Candida albicans it was 2 µg; with Escherichia coli, 15 µg.

Regarding `C[C@H]1C=C(C=O)C(CO)=C[C@@H]2CC(C)(C)C[C@@H]21` [VELLEROL], the Activity with Micrococcus luteus is 300 µg; with Candida albicans, 100 µg; in the assay with Escherichia coli it was >1000 µg.

Turning to `C[C@H]1C=C(CO)C(CO)=C[C@@H]2CC(C)(C)C[C@@H]21` [VELLERDIOL], the Activity in the assay on Micrococcus luteus, with Candida albicans and with Escherichia coli was >1000 µg throughout.

Consider `C[C@H]1C=C(C=O)C(C=O)=C[C@@H]2CC(C)(C)C[C@@H]21` [LACTARANE], for which the Activity in the assay on Micrococcus luteus was 15 µg; in the assay on Candida albicans it was 2 µg; with Escherichia coli, 50 µg.

These data come from ChEMBL document CHEMBL1151648, “The Sesquiterpenes of Lactarius vellereus and Their Role in a Proposed Chemical Defense System” (J Nat Prod, 1985).
